Results published in patent US10717711B2, “Amino quinazolines as kinase inhibitors” (GlaxoSmithKline Intellectual Property Development Limited, priority 2011, dated 2020).
Several values for one entry are separate records, joined by “and”; a condition that tells them apart may be missing. Equal values may be shown once.

These molecules were tested against T1, RIPK2 (full length FLAG His tagged RIPK2; RIP2 kinase) (Homo sapiens, UniProt O43353) (assay: Fluorescent polarization based binding assay at the ATP binding pocket of RIPK2). Conditions: competition with fluorescently labeled ATP competitive ligand (5 nM); mean of a minimum of 2 experiments; approximate values; read-out: mean pIC50 (RIP2 kinase inhibition) (converted).
T1 construct: Full length FLAG His tagged RIPK2 was purified from a Baculovirus expression system; FLAG (N); 6His (N); made in house; host or cells: Spodoptera frugiperda (Sf9) insect cells, baculovirus
Text: A fluorescent polarization based binding assay was developed to quantitate interaction of novel test compounds at the ATP binding pocket of RIPK2, by competition with a fluorescently labeled ATP competitive ligand. Full length FLAG His tagged RIPK2 was purified from a Baculovirus expression system and was used at a final assay concentration of twice the KDapparent. A fluorescent labeled ligand (5-({[2-({[3-({4-[(5-hydroxy-2-methylphenyl)amino]-2-pyrimidinyl}amino)phenyl]carbonyl}amino)ethyl] amino}carbonyl)-2-(6-hydroxy-3-oxo-3H-xanthen-9-yl)benzoic acid, prepared as described in WO2011/120025) was used at a final assay concentration of 5 nM. Both the enzyme and ligand were prepared in solutions in 50 mM HEPES pH7.5, 150 mM NaCl, 10 mM MgCl2, 1 mM DTT, and 1 mM CHAPS. Test compounds were prepared in 100% DMSO and 100 nL was dispensed to individual wells of a multiwell plate. Next, 5 ul RIPK2 was added to the test compounds at twice the final assay concentration, and incubated at rt for 10 min. Following the incubation, 5 ul of the fluorescent labeled ligand solution, was added to each reaction, at twice the final assay concentration, and incubated at rt for at least 10 min. Finally, samples were read on an instrument capable of measuring fluorescent polarization. Test compound inhibition was expressed as percent (%) inhibition of internal assay controls.
For concentration/dose response experiments, normalized data were fit and pIC50S determined using conventional techniques. The pIC50S are averaged to determine a mean value, for a minimum of 2 experiments.
Full-length human RIPK2 (receptor-interacting serine-threonine kinase 2) cDNA was purchased from Invitrogen (Carlsbad, Calif., USA, Clone ID:IOH6368, RIPK2-pENTR 221). Gateway® LR cloning was used to site-specifically recombine RIPK2 downstream to an N-terminal FLAG-6His contained within the destination vector pDEST8-FLAG-His6 according to the protocol described by Invitrogen. Transfection into Spodoptera frugiperda (Sf9) insect cells was performed using Cellfectin® (Invitrogen), according to the manufacturer's protocol.
Sf9 cells were grown in Excell 420 (SAFC Biosciences, Lenexa, Kans., US; Andover, Hampshire UK) growth media at 27° C., 80 rpm in shake flask until of a sufficient volume to inoculate a bioreactor. […] The insect cells were infected with Baculovirus at a multiplicity of infection (MOI) of 12.7. The cultivation was continued for a 43 hour expression phase. The infected cells were removed from the growth media by centrifugation at 2500 g using a Viafuge (Carr) continuous centrifuge at a flow rate of 80 litres/hour. The cell pellet was immediately frozen and subsequently supplied for purification.
Purification Procedure I: 9.83×10^10 Insect cells were re-suspended in 1.4 L lysis buffer (50 mM Tris (pH 8.0), 150 mM NaCl, 0.5 mM NaF, 0.1% Triton X-100, 1 mL/litre Protease Inhibitor Cocktail Set III (available from EMD Group; CalBiochem/Merck Biosciences, Gibbstown, N.J., US; Damstadt, Germany) and processed by dounce homogenization on ice. The suspension was then clarified by centrifugation at 47,900 g for 2 h, at 4° C. The lysate was decanted from the insoluble pellet and loaded at a linear flow rate of 16 cm/h onto a 55 mL FLAG-M2 affinity column (2.6×10.4 cm) that had been pre-equilibrated with 10 column volumes buffer A (50 mM Tris (pH 8.0), 150 mM NaCl, 0.5 mM NaF, 1 mL/litre Protease Inhibitor Cocktail Set III). […]

T1 sequence (O43353 whole entry): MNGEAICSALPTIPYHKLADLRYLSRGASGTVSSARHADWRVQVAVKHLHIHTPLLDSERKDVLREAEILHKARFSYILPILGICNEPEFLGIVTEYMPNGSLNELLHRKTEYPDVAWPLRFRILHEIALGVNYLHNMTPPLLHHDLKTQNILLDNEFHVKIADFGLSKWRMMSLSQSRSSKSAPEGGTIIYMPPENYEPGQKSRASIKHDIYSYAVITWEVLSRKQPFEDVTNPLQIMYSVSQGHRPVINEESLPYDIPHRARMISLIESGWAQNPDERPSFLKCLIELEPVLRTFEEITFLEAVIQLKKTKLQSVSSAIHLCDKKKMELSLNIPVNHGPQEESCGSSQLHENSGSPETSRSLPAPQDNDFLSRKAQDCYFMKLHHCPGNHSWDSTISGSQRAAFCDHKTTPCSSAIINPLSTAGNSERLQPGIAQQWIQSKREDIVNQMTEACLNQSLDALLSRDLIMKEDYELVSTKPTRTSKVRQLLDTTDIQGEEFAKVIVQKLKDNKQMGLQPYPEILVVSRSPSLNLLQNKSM

Row | SMILES | IC50
1 | CC(C)(C)S(=O)(=O)c1ccc2ncnc(Nc3ccc4scnc4c3)c2c1 [Example 4, N-1,3-benzothiazol-5-yl-6-[(1,1-dimethylethyl)sulfonyl]-4-quinazolinamine] | ~31.6 nM and 1 to 100 nM
2 | CC(C)S(=O)(=O)c1ccc2ncnc(Nc3ccc4scnc4c3)c2c1 [Example 6, N-1,3-benzothiazol-5-yl-6-[(1-methylethyl)sulfonyl]-4-quinazolinamine] | 1 to 100 nM
3 | COc1cc2ncnc(Nc3ccc4scnc4c3)c2cc1S(=O)(=O)C(C)(C)C [Example 16, N-(6-(tert-butylsulfonyl)-7-methoxyquinazolin-4-yl)benzo[d]thiazol-5-amine] | ~3.16 nM and 1 to 100 nM
4 | CC(C)(C)S(=O)(=O)c1cc2c(Nc3ccc4scnc4c3)ncnc2cc1OCCO [Example 21, 2-((4-(benzo[d]thiazol-5-ylamino)-6-(tert-butylsulfonyl)quinazolin-7-yl)oxy)ethanol] | 1 to 100 nM
5 | CC(C)(C)S(=O)(=O)c1cc2c(Nc3ccc4scnc4c3)ncnc2cc1OCC(F)(F)F [Example 23, N-(6-(tert-butylsulfonyl)-7-(2,2,2-trifluoroethoxy)quinazolin-4-yl)benzo[d]thiazol-5-amine] | 1 to 100 nM
